Laboratory results as given in the NIST ThermoML archive (doi:10.1021/je100825b).
Numbers after ± are expanded uncertainties.

Details: Liquid, Drop weight

C [methane] + CCCCCCC
interfacial tension (298.2 K, 100 kPa): 19.8 ± 0.2 mN/m
interfacial tension (298.2 K, 2000 kPa): 16.5 ± 0.2 mN/m
interfacial tension (298.2 K, 3000 kPa): 15 ± 0.2 mN/m
interfacial tension (298.2 K, 4000 kPa): 13.4 ± 0.2 mN/m
interfacial tension (298.2 K, 6000 kPa): 10.1 ± 0.2 mN/m
interfacial tension (298.2 K, 8000 kPa): 7.9 ± 0.2 mN/m
interfacial tension (298.2 K, 15000 kPa): 2.3 ± 0.1 mN/m

CCCCCCC [heptane] + O=C=O
interfacial tension (323 K, 100 kPa): 16.8 ± 0.2 mN/m
interfacial tension (323 K, 3100 kPa): 10.1 ± 0.2 mN/m
interfacial tension (323 K, 4500 kPa): 7.8 ± 0.2 mN/m
interfacial tension (323 K, 5500 kPa): 5.7 ± 0.1 mN/m
interfacial tension (323 K, 7900 kPa): 1.5 ± 0.08 mN/m
interfacial tension (323 K, 9300 kPa): 0.11 ± 0.03 mN/m
interfacial tension (353 K, 100 kPa): 13.6 ± 0.2 mN/m
interfacial tension (353 K, 2100 kPa): 10.6 ± 0.2 mN/m
interfacial tension (353 K, 4000 kPa): 7.8 ± 0.2 mN/m
interfacial tension (353 K, 5600 kPa): 6.1 ± 0.2 mN/m
interfacial tension (353 K, 6900 kPa): 4.7 ± 0.1 mN/m
interfacial tension (353 K, 8500 kPa): 2.9 ± 0.1 mN/m
interfacial tension (353 K, 10300 kPa): 0.8 ± 0.05 mN/m
interfacial tension (353 K, 11200 kPa): 0.2 ± 0.02 mN/m

N#N [nitrogen] + CCCCCCC
interfacial tension (323.2 K, 100 kPa): 17.6 ± 0.2 mN/m
interfacial tension (323.2 K, 3400 kPa): 16 ± 0.2 mN/m
interfacial tension (323.2 K, 6900 kPa): 13.7 ± 0.2 mN/m
interfacial tension (323.2 K, 10400 kPa): 12 ± 0.1 mN/m
